Reference: the CheMixHub viscosity set
Several values for one entry are separate records, joined by “and”; a condition that tells them apart may be missing. Identical values can stand only once.

Test: xn = mol fraction of the nth substance listed

CC(=O)O + C1CCOC1
298.15 K, 101 kPa
Settings | viscosity [mPa·s]
x2 = 0.0847 | 1.112
x2 = 0.1723 | 1.087
x2 = 0.263 | 1.04
x2 = 0.357 | 0.9739
x2 = 0.4544 | 0.8952
x2 = 0.5554 | 0.8054
x2 = 0.6602 | 0.7083
x2 = 0.7691 | 0.6103
x2 = 0.8823 | 0.5294

CC(=O)O + c1ccccc1
Settings | viscosity
293.15 K, 101 kPa, x1 = 0.2158 | 0.658 mPa·s
293.15 K, 101 kPa, x1 = 0.3643 | 0.684 mPa·s
293.15 K, 101 kPa, x1 = 0.4322 | 0.67 mPa·s
293.15 K, 101 kPa, x1 = 0.5213 | 0.684 mPa·s
293.15 K, 101 kPa, x1 = 0.7321 | 0.723 mPa·s
293.15 K, 101 kPa, x1 = 0.9233 | 0.808 mPa·s
298.1 K, 101 kPa, x1 = 0.2 | 0.598 mPa·s
298.1 K, 101 kPa, x1 = 0.4 | 0.617 mPa·s
298.1 K, 101 kPa, x1 = 0.5 | 0.636 mPa·s
298.1 K, 101 kPa, x1 = 0.6 | 0.672 mPa·s
298.1 K, 101 kPa, x1 = 0.8 | 0.802 mPa·s
298.15 K, 101 kPa, x1 = 0.2158 | 0.632 mPa·s
298.15 K, 101 kPa, x1 = 0.3643 | 0.661 mPa·s
298.15 K, 101 kPa, x1 = 0.4322 | 0.65 mPa·s
298.15 K, 101 kPa, x1 = 0.5213 | 0.663 mPa·s
298.15 K, 101 kPa, x1 = 0.7321 | 0.668 mPa·s
298.15 K, 101 kPa, x1 = 0.9233 | 0.716 mPa·s
298.15 K, 101.33 kPa, x2 = 0.1 | 0.9008 mPa·s
298.15 K, 101.33 kPa, x2 = 0.1339 | 0.893 mPa·s
298.15 K, 101.33 kPa, x2 = 0.25 | 0.7374 mPa·s and 0.754 mPa·s
298.15 K, 101.33 kPa, x2 = 0.2921 | 0.734 mPa·s
298.15 K, 101.33 kPa, x2 = 0.4 | 0.655 mPa·s
298.15 K, 101.33 kPa, x2 = 0.4179 | 0.666 mPa·s
298.15 K, 101.33 kPa, x2 = 0.5 | 0.6298 mPa·s and 0.653 mPa·s
298.15 K, 101.33 kPa, x2 = 0.7231 | 0.597 mPa·s
298.15 K, 101.33 kPa, x2 = 0.75 | 0.5983 mPa·s
298.15 K, 101.33 kPa, x2 = 0.7711 | 0.596 mPa·s
298.15 K, 101.33 kPa, x2 = 0.8704 | 0.591 mPa·s
298.15 K, 101.33 kPa, x2 = 0.9645 | 0.594 mPa·s
303.15 K, 101 kPa, x1 = 0.2158 | 0.61 mPa·s
303.15 K, 101 kPa, x1 = 0.3643 | 0.628 mPa·s
303.15 K, 101 kPa, x1 = 0.4322 | 0.624 mPa·s
303.15 K, 101 kPa, x1 = 0.5213 | 0.642 mPa·s
303.15 K, 101 kPa, x1 = 0.7321 | 0.653 mPa·s
303.15 K, 101 kPa, x1 = 0.9233 | 0.71 mPa·s
303.15 K, 101 kPa, x2 = 0.1603 | 0.8519 mPa·s
303.15 K, 101 kPa, x2 = 0.39 | 0.6887 mPa·s
303.15 K, 101 kPa, x2 = 0.7224 | 0.5822 mPa·s
313.15 K, 101 kPa, x2 = 0.1603 | 0.7841 mPa·s
313.15 K, 101 kPa, x2 = 0.39 | 0.6245 mPa·s
313.15 K, 101 kPa, x2 = 0.7224 | 0.5111 mPa·s
323.15 K, 101 kPa, x2 = 0.1603 | 0.7112 mPa·s
323.15 K, 101 kPa, x2 = 0.39 | 0.5776 mPa·s
323.15 K, 101 kPa, x2 = 0.7224 | 0.4939 mPa·s

CCOC=O + CCCC(C)O
viscosity [mPa·s], 100 kPa
Settings | x1 = 0.0826 | x1 = 0.1603 | x1 = 0.2396 | x1 = 0.3504 | x1 = 0.4402 | x1 = 0.5595 | x1 = 0.6497 | x1 = 0.74 | x1 = 0.8501 | x1 = 0.9381
293.15 K | 2.84 | 2.16 | 1.73 | 1.34 | 1.12 | 0.91 | 0.78 | 0.65 | 0.52 | 0.45
298.15 K | 2.5 | 1.96 | 1.57 | 1.23 | 1.02 | 0.85 | 0.73 | 0.6 | 0.49 | 0.43
303.15 K | 2.2 | 1.74 | 1.4 | 1.11 | 0.93 | 0.77 | 0.67 | 0.57 | 0.46 | 0.41
308.15 K | 1.9 | 1.53 | 1.23 | 0.98 | 0.84 | 0.7 | 0.6 | 0.52 | 0.43 | 0.39
313.15 K | 1.6 | 1.3 | 1.05 | 0.86 | 0.75 | 0.63 | 0.54 | 0.46 | 0.4 | 0.36
318.15 K | 1.32 | 1.06 | 0.89 | 0.73 | 0.64 | 0.54 | 0.47 | 0.41 | 0.36 | 0.33
323.15 K | 1.06 | 0.84 | 0.7 | 0.59 | 0.53 | 0.45 | 0.4 | 0.36 | 0.33 | 0.31

ClCCl + ClC(Cl)(Cl)Cl
Settings | viscosity [mPa·s]
303.15 K, 101.3 kPa, x2 = 0.506 | 0.5396

C1CCC2=[NH+]CCCN2CC1.c1c[n-]cn1 + O
Settings | viscosity [mPa·s]
298.15 K, 100 kPa, x1 = 0.2994 | 42.65

CC(=O)O + Cc1ccccc1
viscosity [mPa·s]
Settings | 293.15 K | 303.15 K | 313.15 K | 323.15 K
101 kPa, x2 = 0.0642 | – | – | 0.9448 | 0.8122
101 kPa, x2 = 0.2052 | – | – | 0.6513 | 0.4846
101 kPa, x2 = 0.7929 | – | – | 0.4859 | 0.4171
101.33 kPa, x2 = 0.022 | 1.143 | 0.9772 | 0.8709 | 0.7709
101.33 kPa, x2 = 0.0569 | 1.06 | 0.907 | 0.8111 | 0.7288
101.33 kPa, x2 = 0.1191 | 0.9245 | 0.8216 | 0.731 | 0.641
101.33 kPa, x2 = 0.1879 | 0.8359 | 0.741 | 0.6554 | 0.59
101.33 kPa, x2 = 0.2626 | 0.7694 | 0.6753 | 0.603 | 0.5446
101.33 kPa, x2 = 0.352 | 0.7293 | 0.6216 | 0.561 | 0.5072
101.33 kPa, x2 = 0.4459 | 0.6757 | 0.5903 | 0.522 | 0.474
101.33 kPa, x2 = 0.4893 | 0.6542 | 0.5766 | 0.5131 | 0.4647
101.33 kPa, x2 = 0.5579 | 0.6349 | 0.5578 | 0.5022 | 0.4559
101.33 kPa, x2 = 0.6302 | 0.6233 | 0.5464 | 0.491 | 0.4486
101.33 kPa, x2 = 0.6817 | 0.6144 | 0.5382 | 0.4828 | 0.4384
101.33 kPa, x2 = 0.7391 | 0.6055 | 0.5304 | 0.4757 | 0.4319
101.33 kPa, x2 = 0.861 | 0.5941 | 0.5201 | 0.4619 | 0.42
101.33 kPa, x2 = 0.9262 | 0.588 | 0.513 | 0.4611 | 0.4194
101.33 kPa, x2 = 0.9645 | 0.5842 | 0.5088 | 0.4574 | 0.4163
